Results taken from patent publication US10874107B2, “β-lactamase targeted photosensitizer for pesticide and pest detection” (The General Hospital Corporation, priority 2012, dated 2020).

Tests used:
[1] = UV-visible and fluorescence emission spectra of prodrug vs. free photosensitizer (TBO); format: physicochemical
[2] = target: β-lactamase from Enterobacter cloacae (Enterobacter cloacae, UniProt P05364); assay: Enzyme-mediated cleavage of the prodrug (fluorescence emission); format: biochemical
Sequence of β-lactamase from Enterobacter cloacae (P05364 21-381): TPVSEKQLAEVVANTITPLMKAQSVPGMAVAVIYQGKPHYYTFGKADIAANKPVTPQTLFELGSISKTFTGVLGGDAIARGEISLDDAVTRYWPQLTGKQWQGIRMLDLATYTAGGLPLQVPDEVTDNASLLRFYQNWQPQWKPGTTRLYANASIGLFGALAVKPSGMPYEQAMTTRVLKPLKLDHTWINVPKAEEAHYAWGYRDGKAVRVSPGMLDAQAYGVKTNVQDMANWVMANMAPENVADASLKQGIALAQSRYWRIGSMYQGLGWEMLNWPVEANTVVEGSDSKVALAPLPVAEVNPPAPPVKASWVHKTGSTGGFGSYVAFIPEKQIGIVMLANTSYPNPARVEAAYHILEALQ
Text: FIGS. 6A and B show plots of (a) fluorescence emission vs. wavelength and (b) fluorescence emission vs. time for the Cephalosporanic acid-photosensitizer prodrug, depicting the enzyme-mediated cleavage of the prodrug.
The prodrug obtained was further studied for release of photosensitizer in presence of β-lactamase from Enterobacter cloacae. For the fluorescence emission study of the prodrug, the solvent employed was water, and the excitation wavelength 635 nm in the presence of beta-lactamase enzyme (from Enterobacter cloacae). Time-dependent fluorescence emission was also measured for photosensitizer release from the prodrug in the presence of enzyme. […] Thus, the prodrug was ynthesized and characterized.

Substance: Cephalosporanic Acid-Toluidine blueO Prodrug
- quenching of the photosensitizer in the conjugated form [1]: quantitative quenching
- reduction in fluorescence emission maxima (prodrug vs. TBO) ([1]; 635 nm excitation, ethanol): ~8 fold
- shift in the absorption spectra (UV-visible) ([1]; ethanol, 2.0×10^−5 M, vs. TBO): blue shift
- lactamase-specific activity [2]: demonstrated lactamase-specific activity
- increase in excited stated properties (fluorescence emission) on incubation with enzyme ([2]; water, excitation 635 nm, within minutes of incubation with β-lactamase): ~5 fold
